Patent US6555733B2, “Genes coding for amino acid deacetylases with specificity for N-acetyl-L-phosphinothricin, their isolation and use” (priority 1996, dated 2003)

Experiments:
[1] = tested on: N-acetyl-PPT deacetylase (Deac1 protein); assay: Radioactive test of purified N-acetyl-PPT deacetylase (Deac1) with [14C]-N-acetyl-L-PPT, HPLC; format: biochemical, Stenotrophomonas sp.; details: for Km: substrate [14C]-N-acetyl-L-PPT 0.01-1 mM, pH=8.0, 1 mM CoCl2, 3-fold determinations; for Spec. activity: substrate [14C]-N-acetyl-L-PPT
[2] = tested on: N-acetyl-PPT deacetylase (Deac1 protein); assay: Nonradioactive test, substrate specificity of purified deacetylase (amino acid analyzer); format: biochemical, Stenotrophomonas sp.; details: 25 mM substrate; for Rel. activity: 60 min, 28 °C, 5 μg enzyme, hippuric acid set equal to 100%
Method: (2) Nonradioactive test: To investigate the substrate specificity, 5 μg each of purified enzyme were incubated for 60 min. at 28° C. in 20 μl batches in PBS buffer with, in each case, 25 mM of a certain N-acetyl- or N-acylamino acid. The samples were then measured in an amino acid analyzer (Biotronic LC 5001) for formation of the free amino acids. The specific activities were determined in [nmol of amino acid/min/mg of protein]. For the N-acetyl-PPT deacetylase, a pH optimum of pH=8 (see Tab. 1) and a temperature optimum of 37° C. (see Tab. 2) were determined. […] By addition of 1 mM CoCl2, the enzyme activity could be increased by about 20%.

[3] = tested on: deac2 gene product; assay: Conversion of N-acetylated amino acids by permeabilized E. coli XLI blue cells with pGK81; format: cell-based, Comamonas acidovorans; details: 25 mM, 3 hours at 30 °C
Method: To investigate the substrate specificity of the deac2 gene product from Comamonas acidovorans, cells of E. coli strain XLI blue permeabilized by toluene/ethanol treatment were used with and without the vector pGK81. The induction of the deac2 gene repressed by the Lac^i repressor present in this strain could be achieved by IPTG treatment. The permeabilized cells were incubated for 3 hours at 30° C. with various N-acetylated amino acids (final concentration 25 mM) and the supernatants were investigated with the aid of an amino acid analyzer. It turned out here that more than 20% of the N-acetylornithine made available was converted. For N-acetyl-phosphinothricin too, an increasing deacetylation to phosphinothricin, analogous to the concentration of N-acetylphosphinothricin employed, could be found (Table 7).
The concentrations of the N-acetylated amino acids employed and the amino acids formed by deacetylation are indicated.

[4] = tested on: leaves of tobacco plants (35S promoter-deac1 transformants, nontransgenic controls); assay: Drop experiment on leaves of pPCVKDEAC1 tobacco plants and nontransgenic control plants; format: in vivo, Nicotiana tabacum; set-up: key to Drop experiment, leaf symptoms: +++: severe necrosis; ++: marked damage; +: slight lightening; −: no symptoms
Description: The deac1 structural gene was recloned as a 1.4 kb BamHI/SalI PCT fragment into the binary vector pPCV801 (Koncz and Schell, 1986, Mol. Gen. Genet. 204: 383-396) under control of the 35S promoter. The resulting plasmid pPCVKDEAC1 (FIG. 2) with the expression vector 35S promoter-deac1-structural gene-35S terminator was transformed in Agrobacterium tumefaciens (strain ATHV) using standard methods. Pieces of tobacco leaf (Nicotiana tabacum) were transformed with the recombinant Agrobacteria according to the method of Horsch et al., 1985, Science 227: 1229-1231 and selected on kanamycin medium, 18 independent tobacco transformants were regenerated and tested for expression of the deacetylase in the leaves. In the case of activity of the protein in the transgenic plants, a sensitivity of the leaves to N-acetyl-PPT was to be expected, because the substance in the plant is then converted into the herbicidal active compound phosphinothricin on account of the enzymatic activity of the deacetylase.
In a drop experiment, the leaves of the transgenic plants and of a number of nontransgenic control plants were treated with 5 μl each of the following concentrations of N-acetyl-D,L-PPT: 4 mg/ml(=15 mM), 1 mg/ml(=3.75 mM), 0.4 mg/ml(=1.5 mM), 0.1 mg/ml(=0.38 mM). The treatment sites were examined for lightening or necrosis formation after 1-2 weeks. Simultaneously, the N-acetyl-PPT-specific deacetylase activity of the transformants, and also of the control plants, was measured in crude extracts. To do this, 100 mg each of leaf material were homogenized in 200 μl of PBS buffer, the cell debris was centrifuged off and the protein-containing supernatants were dialyzed overnight at 4° C. against the same buffer. 10 μl each of these samples were incubated with 0.1 mM [^14C]-N-acetyl-L-PPT overnight at 37° C. The batches were then analyzed in the HPLC, as described above, for formation of [^14C]-L-PPT.

[5] = tested on: flower buds of tobacco plants (tap1 promoter-deac1 transformants, NT Sam NN controls); assay: Flower bud treatment, induced male sterility in pPCVTDEAC1 tobacco plants; format: in vivo, Nicotiana tabacum
Description: Using standard methods, the tapetum-specific promoter of the tap1 gene from snapdragon (Antirrhinum majus) was fused in the vector pUC18 as a 2.2 kb EcoRI/BamHI fragment with the deac1 structural gene (1.4 kb BamHI/SalI-PCR fragment) and the 35S terminator. The expression cassette tap1 promoter-deac structural gene-35S terminator thus resulting was cloned into the binary vector pPCV801 as a 3.8 kb EcoRI fragment instead of the 35S promoter/terminator region (plasmid pPCVTDEAC1, FIG. 3). The transformation of tobacco was carried out as described in Example 4.
In the case of tapetum-specific expression of the deacetylase, it should be possible by treatment of the flower buds with N-acetyl-PPT to induce male-sterile flowers. The conversion of the PPT derivative into the herbicidal active compound phosphinothricin leads to selective damage to the tapetum tissue, by means of which the development of functional pollen is prevented.
In each case only one side of the inflorescences (the total area of the developing flower buds) was treated with N-acetyl-PPT, the other side of the influorescences remained untreated in order to ensure that the phenomena to be observed are not to be attributed to deformities of the respective plants. The treatment was carried out at a time at which the individual buds were not larger than 5 mm (active phase for tapetum promoter). The tobacco transformants and also a number of NT Sam NN control plants were treated 3× with 0.2% N-acetyl-D,L-PPT(=7.5 mM)/0.1% Genapol (wetting agent) within one week. After the blooming of the buds (about 9-11 days after conclusion of the treatment), the plants were investigated for the occurrence of male-sterile flowers.

In the case of `CC(=O)N[C@@H](CCP(C)(=O)O)C(=O)O` [N-acetyl-L-PPT, N-acetyl-L-phosphinothricin], the Km [1] is reported as 670 µM, the “affinity below that for hippuric acid and N-acetyl-L-glutamate” value [2] is reported as “approximately 50%” and the Rel. activity [2] is reported as 43%.

`CC(=O)N[C@@H](Cc1cnc[nH]1)C(=O)O` [N-Ac-histidine] was tested, and the Rel. activity [2] was 43%.

For `CC(=O)N[C@@H](CCC(=O)O)C(=O)O` [N-Ac-glutamic acid, N-acetyl-L-glutamate], the “conversion by the deacetylase (in words)” value [2] was “highest conversions” and the Rel. activity [2] was 100%.

Molecule `CC(=O)N[C@@H](CCC(N)=O)C(=O)O` [N-Ac-glutamine] has a Rel. activity [2] of 30%.

For `CSCCC(NC(C)=O)C(=O)O` (stereo not shown) [N-Ac-methionine], the Rel. activity [2] was 0%.

`CC(=O)N[C@H](C(=O)O)C(C)C` [N-Ac-valine] was tested, and the Rel. activity [2] was 2%.

In the case of `O=C(O)CNC(=O)c1ccccc1` [Hippuric acid, N-benzoylglycine], the “conversion by the deacetylase (in words)” value [2] is reported as “highest conversions” and the Rel. activity [2] is reported as 100%.

For `CC(=O)N1CCCC1C(=O)O` (stereo not shown) [N-Ac-proline], the Rel. activity [2] was 0%.

Work on `CC(=O)N[C@@H](CCCN)C(=O)O` [N-Ac-ornithine] yielded a Rel. activity [2] of 37%.

With `CC(=O)NC(Cc1c[nH]c2ccccc12)C(=O)O` (stereo not shown) [N-Ac-tryptophan] the Rel. activity [2] was 0.4%.

For `CC(=O)NC(Cc1ccccc1)C(=O)O` (stereo not shown) [N-Ac-phenylalanine], the Rel. activity [2] was 24%.

With `CC(=O)NC(CO)C(=O)O` (stereo not shown) [N-Ac-serine] the Rel. activity [2] was 4%.

For `CC(=O)N[C@@H](Cc1ccc(O)cc1)C(=O)O` [N-Ac-tyrosine], the Rel. activity [2] was 11%.

`CC(=O)N[C@@H](CC(C)C)C(=O)O` [N-Ac-leucine] showed a Rel. activity [2] of 33%.

`CC(=O)NCC(=O)O` [N-Ac-glycine] gave a Rel. activity [2] of 59%.

In the case of `[Cl-].[Cl-].[Co+2]` [CoCl2], the “increase of enzyme activity” value [1] is reported as “about 20%”.

With `CC(=O)N[C@@H](CCCN)C(=O)O` [N-acetyl-ornithine, N-acetylornithine] the “share of substrate made available that was converted” value [3] was “more than 20%”.

With `CC(=O)NC(CCP(C)(=O)O)C(=O)O` (racemic) [N-acetyl-D,L-PPT, N-acetylphosphinothricin] the “Drop experiment, leaf symptoms” value ([4]; Control plant, 0.1 mg/ml) was “−”, the “Drop experiment, leaf symptoms” value ([4]; Control plant, 0.4 mg/ml) was “−” and the “Drop experiment, leaf symptoms” value ([4]; Control plant, 1 mg/ml) was “−”. For the same molecule, the “Drop experiment, leaf symptoms” value ([4]; Control plant, 4 mg/ml, 5 μl, after 1-2 weeks) was “−”, the “concentration to which leaves still react sensitively” value ([4]; constitutive expression of the deac gene, greenhouse plants (=0.2 mg/ml of L-enantiomer)) was 0.4 mg/mL and the “Drop experiment, leaf symptoms” value ([4]; plant pPCVK9, 0.1 mg/ml) was “−”. For the same molecule, the “Drop experiment, leaf symptoms” value ([4]; plant pPCVK9, 0.4 mg/ml) was “−”, the “Drop experiment, leaf symptoms” value ([4]; plant pPCVK9, 1 mg/ml) was “+” and the “Drop experiment, leaf symptoms” value ([4]; plant pPCVK9, 4 mg/ml) was “+++”. For the same molecule, the “Drop experiment, leaf symptoms” value ([4]; plant pPCVK14, 0.1 mg/ml) was “−”, the “Drop experiment, leaf symptoms” value ([4]; plant pPCVK14, 0.4 mg/ml) was “−” and the “Drop experiment, leaf symptoms” value ([4]; plant pPCVK14, 1 mg/ml) was “+”. For the same molecule, the “Drop experiment, leaf symptoms” value ([4]; plant pPCVK14, 4 mg/ml) was “+”, the “Drop experiment, leaf symptoms” value ([4]; plant pPCVK15, 0.1 mg/ml) was “−” and the “Drop experiment, leaf symptoms” value ([4]; plant pPCVK15, 0.4 mg/ml) was “+”. For the same molecule, the “Drop experiment, leaf symptoms” value ([4]; plant pPCVK15, 1 mg/ml) was “+”, the “Drop experiment, leaf symptoms” value ([4]; plant pPCVK15, 4 mg/ml) was “++” and the “Drop experiment, leaf symptoms” value ([4]; plant pPCVK16, 0.1 mg/ml) was “−”. For the same molecule, the “Drop experiment, leaf symptoms” value ([4]; plant pPCVK16, 0.4 mg/ml) was “−”, the “Drop experiment, leaf symptoms” value ([4]; plant pPCVK16, 1 mg/ml) was “+” and the “Drop experiment, leaf symptoms” value ([4]; plant pPCVK16, 4 mg/ml) was “+”. For the same molecule, the “Drop experiment, leaf symptoms” value ([4]; plant pPCVK17, 0.1 mg/ml) was “−”, the “Drop experiment, leaf symptoms” value ([4]; plant pPCVK17, 0.4 mg/ml) was “−” and the “Drop experiment, leaf symptoms” value ([4]; plant pPCVK17, 1 mg/ml) was “+”. For the same molecule, the “Drop experiment, leaf symptoms” value ([4]; plant pPCVK17, 4 mg/ml) was “+”, the “Number of sterile or pollen-reduced flowers, treated” value ([5]; Control plant, 3x 0.2% N-acetyl-D,L-PPT/0.1% Genapol within one week) was 0 and the “Number of sterile or pollen-reduced flowers, treated” value ([5]; plant pPCT16) was 10. The “Number of sterile or pollen-reduced flowers, treated” value ([5]; plant pPCVT14) was 18, the “Number of sterile or pollen-reduced flowers, treated” value ([5]; plant pPCVT15) was 0 and the “induction of male-sterile flowers (in words)” value ([5]; tapetum-specific expression, buds treated with 2 mg/ml (=1 mg/ml of L-enantiomer), greenhouse plants) was “induction of male-sterile flowers was achieved”.

B1: N-acetyl-PPT deacetylase: deacetylase from Stenotrophomonas sp., 454 amino acids (SEQ ID NO:2), purified from E. coli as GST fusion cleavage product (protein)
chain: MIRKTVLLTALSCALASATATAAEGQRPEVEAAAARLQRQVVEWRRDFHQHPELSNREVRTAAKVAERLRAMGLQPQTGVAVHGVVAIIKGALPGPKIALRADMDALPVTEQTGLPFASTATAEYRGEKVGVMHACGHDAHTATLLGVADALVAMRDTLPGEVMLIFQPAEEGAPPPEQGGAELMLKEGLFKEFKPEAVFGLHVFSSVQAGQIAVRGGPLMAASDRFAITVNGRQTHGSAPWNGIDPIVAASDLIGTAQTIVSRRANLSKQPAVLTFGAIKGGIRYNIIPDSVEMVGTIRTFDPDMRKQIFADLRNVAEHTAAAHGATATTDIYEKDGNPATVNDPALTARMLPSLQAVVGKDNVYEPPLQMGSEDFSLYAQQVPAMFFFVGSTGAGIDPATAPSNHSPKFLLDEKALDVGLRALLQVSLDYLHGGKAG
modifications: Stenotrophomonas sp
In the case of B1, the Spec. activity ([1]; 28 °C) is reported as 9.6 nmol/min/mg of protein, the Spec. activity ([1]; 37 °C) is reported as 16.8 nmol/min/mg of protein and the Spec. activity ([1]; 50 °C) is reported as 14.9 nmol/min/mg of protein. For the same molecule, the Spec. activity ([1]; 60 °C) was 4.3 nmol/min/mg of protein, the Spec. activity ([1]; pH 6) was 2.4 mol/min/mg of protein and the Spec. activity ([1]; pH 8) was 12.0 mol/min/mg of protein. The Km [1] was 670 µM.
